Laboratory results reported in article PMC9120017, “Inhibition mechanism of the chloride channel TMEM16A by the pore blocker 1PBC” (Nature Communications, 2022).
Like-named read-outs stand apart in the source and are kept apart here.

Target: T1, mouse TMEM16A mutant T539A (Mus musculus, UniProt Q8BHY3, T539A)
T1 construct: expressed in transfected cells; host or cells: HEK293T
T1 sequence (Q8BHY3 1-960 T539A): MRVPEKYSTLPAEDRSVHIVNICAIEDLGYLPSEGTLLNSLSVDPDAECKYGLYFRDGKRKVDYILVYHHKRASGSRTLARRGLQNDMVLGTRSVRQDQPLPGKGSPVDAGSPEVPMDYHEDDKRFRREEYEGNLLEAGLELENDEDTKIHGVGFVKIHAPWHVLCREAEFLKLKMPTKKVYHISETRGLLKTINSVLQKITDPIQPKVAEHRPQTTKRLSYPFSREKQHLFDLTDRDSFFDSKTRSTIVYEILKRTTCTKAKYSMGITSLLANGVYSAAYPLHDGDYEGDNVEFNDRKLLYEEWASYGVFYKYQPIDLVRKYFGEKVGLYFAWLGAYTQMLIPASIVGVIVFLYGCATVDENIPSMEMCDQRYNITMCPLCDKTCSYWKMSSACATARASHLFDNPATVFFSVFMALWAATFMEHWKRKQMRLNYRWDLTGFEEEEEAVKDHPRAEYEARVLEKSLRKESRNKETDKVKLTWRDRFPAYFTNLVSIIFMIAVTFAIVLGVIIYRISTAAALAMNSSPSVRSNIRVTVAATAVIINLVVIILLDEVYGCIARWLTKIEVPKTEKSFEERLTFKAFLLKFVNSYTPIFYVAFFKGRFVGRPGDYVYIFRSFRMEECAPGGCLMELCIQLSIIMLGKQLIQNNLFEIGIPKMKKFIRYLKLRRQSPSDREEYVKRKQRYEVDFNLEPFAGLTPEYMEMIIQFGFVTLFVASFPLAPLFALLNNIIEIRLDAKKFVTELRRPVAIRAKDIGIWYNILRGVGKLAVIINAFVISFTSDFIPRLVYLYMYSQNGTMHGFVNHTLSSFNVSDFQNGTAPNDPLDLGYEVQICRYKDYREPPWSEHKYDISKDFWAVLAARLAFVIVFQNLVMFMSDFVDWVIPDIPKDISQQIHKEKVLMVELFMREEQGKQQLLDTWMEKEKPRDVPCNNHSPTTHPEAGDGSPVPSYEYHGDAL
Experiment: Inside-out patch recording of 1PBC block, mutant T539A
Format: cell-based
Details: for remaining activity at 30 µM: 1PBC 30; for remaining activity at 30 µM / remaining activity at 100 µM: read-out: fraction of unblocked current; for remaining activity at 100 µM: 1PBC 100
Description: HEK293T cells (ATCC CRL-1573) were maintained in Dulbecco’s modified Eagle’s medium (DMEM; Sigma-Aldrich) supplemented with 10 U ml^−1 penicillin, 0.1 mg ml^−1 streptomycin (Sigma-Aldrich), 2 mM L-glutamine (Sigma-Aldrich), and 10% FBS (Sigma-Aldrich) in a humidified atmosphere containing 5% CO2 at 37 °C. HEK293S GnTI^− cells (ATCC CRL-3022) were maintained in HyClone HyCell TransFx-H medium (GE Healthcare) supplemented with 10 U ml^−1 penicillin, 0.1 mg ml^−1 streptomycin, 4 mM L-glutamine, 0.15% poloxamer 188 (Sigma-Aldrich), and 1% FBS in an atmosphere containing 5% CO2 at 185 rpm at 37 °C. The ac splice variant of mouse TMEM16A (UniProt ID: Q8BHY3), mouse TMEM16B (UniProt ID: Q8CFW1), or mouse TMEM16F (UniProt ID: Q6P9J9) bearing a 3C cleavage site, a Venus YFP, a Myc tag, and a Streptavidin-binding peptide (SBP) downstream of the open reading frame in a modified pcDNA3.1 vector (Invitrogen) were used as described previously[21],[31]. Mutations were introduced using a modified QuikChange method[58] and were verified by sequencing.
HEK293T cells were transfected with 3–4 μg DNA per 6 cm Petri dish using the calcium phosphate co-precipitation method and were used within 24–96 h after transfection. Recordings were performed on inside-out patches excised from HEK293T cells expressing the construct of interest. Patch pipettes were pulled from borosilicate glass capillaries (O.D. 1.5 mm, I.D. 0.86 mm, Sutter Instrument) and were fire-polished with a microforge (Narishige) before use. Pipette resistance was typically 3–8 MΩ when filled with the recording solutions detailed below. Seal resistance was typically 4 GΩ or higher. Voltage-clamp recordings were made using Axopatch 200B, Digidata 1550, and Clampex 10.7 (Molecular Devices). Analog signals were filtered with the in-built 4-pole Bessel filter at 10 kHz and were digitized at 20 kHz. Solution exchange was achieved using a gravity-fed system through a theta glass pipette mounted on an ultra-fast piezo-driven stepper (Siskiyou). […] All recordings were performed at 20 °C.
A symmetrical ionic condition was used throughout. Stock solution with Ca^2+-EGTA contained 150 mM NaCl, 5.99 mM Ca(OH)2, 5 mM EGTA, and 10 mM HEPES at pH 7.40. Stock solution with EGTA contained 150 mM NaCl, 5 mM EGTA, and 10 mM HEPES at pH 7.40. Free Ca^2+ concentrations were adjusted by mixing the stock solutions at the required ratios calculated using the WEBMAXC program (http://web.stanford.edu/~cpatton/webmaxcS.htm). Patch pipettes were filled with the stock solution with Ca^2+-EGTA, which has a free Ca^2+ concentration of 1 mM. 1PBC (ChemBridge) stock was reconstituted in anhydrous DMSO (Sigma-Aldrich) at 100 mM and stored at −20 °C. Working solutions with 1PBC were prepared by serial dilution. Unless otherwise stated, experiments were performed at a saturating Ca^2+ concentration as shown in Supplementary Table 1 and the primary data were corrected for current rundown as described previously[21],[25].
Concentration-response relations, obtained from the ratio of the I-V plots before and after the application of the blocker, were fitted to the Hill equation,1 I/Imax=1/1+IC50/[blocker]^h where I/Imax is the normalized current responses, IC50 defines the concentration at which inhibition is at its half-maximum, and h is the Hill coefficient.

N#Cc1c(C(F)(F)F)cc(O)n2c1nc1ccccc12 [1PBC] gave a remaining activity at 30 µM (-60 mV) of 46.1%, a remaining activity at 30 µM (-80 mV) of 49.4% and a remaining activity at 30 µM (-100 mV) of 53.7%. The remaining activity at 30 µM (-120 mV) was 55.9%, the remaining activity at 30 µM (-140 mV) was 58.7% and the remaining activity at 100 µM (0 mV) was 14.3%. The remaining activity at 100 µM (20 mV) was 11.9%, the remaining activity at 100 µM (40 mV) was 11.3% and the remaining activity at 100 µM (60 mV) was 10%. The remaining activity at 100 µM (80 mV) was 8.95%, the remaining activity at 100 µM (100 mV) was 7.58% and the remaining activity at 100 µM (120 mV) was 8.07%. For the same compound, the remaining activity at 100 µM (140 mV) was 8.23%, the remaining activity at 100 µM (-20 mV) was 16.6% and the remaining activity at 100 µM (-40 mV) was 18.5%. For the same compound, the remaining activity at 100 µM (-60 mV) was 21.3%, the remaining activity at 100 µM (-80 mV) was 25% and the remaining activity at 100 µM (-100 mV) was 28.2%. It also gave a remaining activity at 100 µM (-120 mV) of 30.6%, a remaining activity at 100 µM (-140 mV) of 34% and an IC50 (20 mV, 2 µM Ca2+) of 12.9 µM. For the same compound, the IC50 (40 mV, 2 µM Ca2+) was 11 µM, the IC50 (60 mV, 2 µM Ca2+) was 9.86 µM and the “log-fold IC50 (change of mutant vs WT)” value (80 mV) was 0.6239. It also gave an IC50 (80 mV, 2 µM Ca2+) of 9.02 µM, an IC50 (100 mV, 2 µM Ca2+) of 8.74 µM and an IC50 (120 mV, 2 µM Ca2+) of 8.83 µM. It also gave an IC50 (140 mV, 2 µM Ca2+) of 9.45 µM, an IC50 (-20 mV, 2 µM Ca2+) of 17.3 µM and an IC50 (-40 mV, 2 µM Ca2+) of 20.5 µM. It also gave an IC50 (-60 mV, 2 µM Ca2+) of 24.4 µM, an IC50 (-80 mV, 2 µM Ca2+) of 28.9 µM and an IC50 (-100 mV, 2 µM Ca2+) of 34.3 µM. It also gave an IC50 (-120 mV, 2 µM Ca2+) of 38.6 µM, an IC50 (-140 mV, 2 µM Ca2+) of 44.4 µM and an IC50 (T539A, V 0 mV) of 14.9 µM. It also gave an IC50 (T539A, V 20 mV) of 12.9 µM, an IC50 (T539A, V 40 mV) of 11 µM and an IC50 (T539A, V 60 mV) of 9.86 µM. The IC50 (T539A, V 80 mV) was 9.02 µM, the IC50 (T539A, V 100 mV) was 8.74 µM and the IC50 (T539A, V 120 mV) was 8.83 µM. For the same compound, the IC50 (T539A, V 140 mV) was 9.45 µM, the IC50 (T539A, V -20 mV) was 17.3 µM and the IC50 (T539A, V -40 mV) was 20.5 µM. It also gave an IC50 (T539A, V -60 mV) of 24.4 µM, an IC50 (T539A, V -80 mV) of 28.9 µM and an IC50 (T539A, V -100 mV) of 34.3 µM. The IC50 (T539A, V -120 mV) was 38.6 µM and the IC50 (T539A, V -140 mV) was 44.4 µM.
